Experimental data published in ChEMBL document CHEMBL5038635, “Discovery of Salidroside-Derivated Glycoside Analogues as Novel Angiogenesis Agents to Treat Diabetic Hind Limb Ischemia” (J Med Chem, 2022).
In brackets after ≈: the same amount, converted by molar mass. Activity calls are given as the source filed them. The calls are words filed in the database; no cut-off is given here.

What was measured:
Mus musculus [1] = assay: Antidiabetic activity in diabetic HLI C57BL/6 mouse model assessed as increase in blood perfusion recovery at 30 mg/kg administered intramuscularly measured after 14 days; type: functional; settings: time 14 day
C2C12 [2] = assay: Angiogenesis activity in mouse C2C12 cells with silenced HIF-1alpha assessed increase in cell migration at 30 uM under hyperglycemic condition incubated for 24 hrs by crystal violet dye based transwell chamber assay; type: functional
C2C12 [3] = assay: Upregulation of HO-1 protein expression in mouse C2C12 cells at 30 uM by Western blot analysis; type: functional, cell-based
C2C12 [4] = assay: Angiogenic activity in mouse C2C12 cells assessed as reversal of hyperglycemia-induced reduction in total cell number at 300 uM measured after 24 to 36 hrs by EdU-incorporation assay; type: functional, cell-based; settings: time 24-36 hrs
C2C12 [5] = assay: Induction of cell migration in mouse C2C12 cells at 30 uM under hyperglycemic condition incubated for 24 hrs by crystal violet dye based transwell chamber assay; type: functional
C2C12 [6] = assay: Upregulation of […] protein expression in mouse C2C12 cells at 30 uM by Western blot analysis; type: functional, cell-based
C2C12 [7] = assay: Apoptotic rate in hyperglycemia-treated mouse C2C12 cells assessed as necrotic cells at 30 uM by AnnexinV-FITC/PI staining based flow cytometric analysis (reference value: 0.56 %); type: functional
C2C12 [8] = assay: Upregulation of PIK3CG protein expression in mouse C2C12 cells at 30 uM by Western blot analysis; type: functional, cell-based
C2C12 [9] = assay: Upregulation of CXCL17 protein expression in mouse C2C12 cells at 30 uM by Western blot analysis; type: functional, cell-based
C2C12 [10] = assay: Induction of proliferation of hyperglycemia-induced mouse C2C12 cell apoptosis assessed as decrease in Annexin V/PI-positive cells at 30 uM pretreated with compound under hyperglycemia condition for 12 hr followed by hypoxia for 24 hrs; type: functional, cell-based; settings: time 36.0 hrs
Mus musculus [11] = assay: Antidiabetic activity in diabetic HLI C57BL/6 mouse model assessed as increase in blood perfusion recovery at 30 mg/kg administered intramuscularly; type: functional, organism-based
C2C12 [12] = assay: Upregulation of IGF protein expression in mouse C2C12 cells at 30 uM by Western blot analysis; type: functional, cell-based
C2C12 [13] = assay: Angiogenic activity in mouse C2C12 cells assessed as reversal of hyperglycemia-induced reduction in total cell number at 30 uM measured after 24 to 36 hrs by EdU-incorporation assay; type: functional, cell-based; settings: time 24-36 hrs
C2C12 [14] = assay: Induction of proliferation of hyperglycemia-induced mouse C2C12 cell apoptosis assessed as decrease in Annexin V/PI-positive cells at 15 uM pretreated with compound under hyperglycemia condition for 12 hr followed by hypoxia for 24 hrs; type: functional, cell-based; settings: time 36.0 hrs
Mus musculus [15] = assay: Angiogenic activity in diabetic HLI C57BL/6 mouse model assessed as HIF-1alpha protein expression at 30 mg/kg, im administered for 21 days followed by surgery by Western blot analysis; type: functional, organism-based; settings: time 21.0 day
C2C12 [16] = assay: Apoptotic rate in hyperglycemia-treated mouse C2C12 cells assessed as early apoptotic cells at 30 uM by AnnexinV-FITC/PI staining based flow cytometric analysis (reference value: 7.10 %); type: functional
C2C12 [17] = assay: Effect on PHD2 mRNA expression in mouse C2C12 cells at 30 uM by qRT-PCR analysis; type: functional, cell-based
MOVAS-1 [18] = assay: Angiogenesis activity in mouse MOVAS-1 cells assessed as suppression of cell migration using conditioned medium of mouse C2C12 cells with silenced HIF-1alpha treated at 30 uM under hyperglycemic condition for 12 hrs followed by hypoxia for 24 hrs in presence of PDGF-BB inhibitor CP868596 by crystal violet dye based transwell assay; type: functional; settings: time 36.0 hrs
[19] = Toxicity in diabetic HLI C57BL/6 mouse model assessed as kidney pathology at 30 mg/kg, IM administered by HE staining based assay; type: organism-based; settings: in vivo
[20] = Octanol/Water partition coefficient, log P of the compound by HPLC-UV analysis
MOVAS-1 [21] = assay: Angiogenesis activity in mouse MOVAS-1 cells assessed as suppression of cell migration using conditioned medium of mouse C2C12 cells treated at 30 uM under hyperglycemic condition for 12 hrs followed by hypoxia for 24 hrs by crystal violet dye based transwell assay; type: functional; settings: time 36.0 hrs
C2C12 [22] = assay: Induction proliferation of mouse C2C12 cells with silenced HIF-1alpha at 30 uM pretreated with compound in hyperglycemia condition for 12 hr followed by hypoxia condition for 24 hrs by EdU-incorporation assay; type: functional, cell-based; settings: time 36.0 hrs
HUVEC = assay: Angiogenesis activity in human HUVEC cells assessed as increase of cell migration using conditioned medium of mouse C2C12 cells with silenced HIF-1alpha treated at 30 uM under hyperglycemic condition for 12 hrs followed by hypoxia for 24 hrs by crystal violet dye based transwell assay; type: functional; settings: time 36.0 hrs
[23] = Toxicity in diabetic HLI C57BL/6 mouse model assessed as liver pathology at 30 mg/kg, IM administered by HE staining based assay; type: organism-based; settings: in vivo
C2C12 [24] = assay: Increase in VEGF-A protein expression level in […] mouse C2C12 cells at 30 uM by Western blot analysis; type: functional, cell-based
[25] = Microsomal stability in rat liver microsomes assessed as compound remaining after 30 min by HPLC analysis; type: ADME, Microsome; settings: read-out: Stability
C2C12 [26] = assay: Reversal of hyperglycemia-induced PDGF-BB protein level reduction in mouse C2C12 cells measured at 30 uM by ELISA; type: functional, cell-based
[27] = Water solubility of the compound by HPLC analysis
Mus musculus [28] = assay: Antidiabetic activity in diabetic HLI C57BL/6 mouse model assessed as morphological changes at 30 mg/kg administered intramuscularly; type: functional, organism-based
C2C12 [29] = assay: Apoptotic rate in hyperglycemia-treated mouse C2C12 cells assessed as late apoptotic cells at 30 uM by AnnexinV-FITC/PI staining based flow cytometric analysis (reference value: 10.44 %); type: functional
C2C12 [30] = assay: Angiogenic activity in mouse C2C12 cells assessed as reversal of hyperglycemia-induced reduction in total cell number at 100 uM measured after 24 to 36 hrs by EdU-incorporation assay; type: functional, cell-based; settings: time 24-36 hrs
C2C12 [31] = assay: Upregulation of HGF protein expression in mouse C2C12 cells at 30 uM by Western blot analysis; type: functional, cell-based
[32] = Stability in rat plasma assessed as compound remaining at 6.25 to 25 mg/L after 12 hrs by HPLC analysis; type: ADME, cell-free; settings: at 6.25 to 25 µg/mL, dose 6.25-25 mg/L, read-out: Stability
C2C12 [33] = assay: Apoptotic rate in hyperglycemia-treated mouse C2C12 cells assessed as viable cells at 15 uM by AnnexinV-FITC/PI staining based flow cytometric analysis (reference value: 81.90 %); type: functional; settings: read-out: Activity
MOVAS-1 [34] = assay: Induction proliferation of mouse MOVAS-1 cells assessed as increase in number of EdU-positive cells using conditioned medium of mouse C2C12 cells with silenced HIF-1alpha treated at 30 uM under hyperglycemic condition for 12 hrs followed by hypoxia for 24 hrs in presence of VEGFR inhibitor Ki8751 by EdU-incorporation assay; type: functional, cell-based; settings: time 36.0 hrs
C2C12 [35] = assay: Upregulation of FGF1protein expression in mouse C2C12 cells at 30 uM by Western blot analysis; type: functional, cell-based
[36] = Dissociation constant, pKa of compound by UV-visible spectrometric method; type: physicochemical
C2C12 [37] = assay: Apoptotic rate in mouse C2C12 cells with silenced HIF-1alpha assessed as viable cells at 30 uM by AnnexinV-FITC/PI staining based FACS analysis (reference value: 86.05 %); type: functional; settings: read-out: Activity
C2C12 [38] = assay: Effect on PHD1 mRNA expression in mouse C2C12 cells at 30 uM by qRT-PCR analysis; type: functional, cell-based

COc1ccc(Cc2cccc(O[C@@H]3O[C@H](CO)[C@@H](O)[C@H](O)[C@H]3O)c2)cc1
Activity (Mus musculus [1]): 70%
Activity (C2C12 [2]): inactive
Activity (C2C12 [3]): Active
Activity (C2C12 [4]): inactive
Activity (C2C12 [5]): Active
Activity (C2C12 [6]): Active
Activity (C2C12 [7]): 0.35%
Activity (C2C12 [8]): Active
Activity (C2C12 [9]): Active
Activity (C2C12 [10]): Active
Activity (Mus musculus [11]): Active
Activity (C2C12 [12]): Active
Activity (C2C12 [13]): inactive
Activity (C2C12 [14]): Active
Activity (Mus musculus [15]): Active
Activity (C2C12 [16]): 2.13%
Activity (C2C12 [17]): inactive
Activity (MOVAS-1 [18]): inactive
Activity [19]: Non-Toxic
logP [20]: 0.971
Activity (MOVAS-1 [21]): Active
Activity (C2C12 [22]): inactive
Activity (HUVEC): Active
Activity [23]: Non-Toxic
Activity (C2C12 [24]): inactive
remaining at 0.5 h [25]: 79.4%
Activity (C2C12 [26]): Active
solubility [27]: 1910 µg/mL (≈ 5.07 mM)
Activity (Mus musculus [28]): Active
Activity (C2C12 [29]): 3.94%
Activity (C2C12 [30]): inactive
Activity (C2C12 [31]): Active
remaining at 12 h [32]: 98.5%
viability at 15 µM (C2C12 [33]): 88.9%
Activity (MOVAS-1 [34]): inactive
Activity (C2C12 [35]): Active
pKa [36]: > 14
viability at 30 µM (C2C12 [37]): 82%
Activity (C2C12 [38]): inactive
